From patent US20020127268A1, “Anion regulator for ruminants” (AJINOMOTO CO., INC., priority 1997, published 2002)

System: Holstein calves
Experiment: Test on anion regulating activity (urinary pH)
Format: in vivo
Conditions: Table 3 and FIG. 1 summary
Method: If a DCAD value is positive, the urinary pH is 7-8.5. It is also known that if an anion regulator is added, and as a result the feed is changed to show a negative DCAD value, the urinary pH of animals to which such feed has been fed is reduced and will show a value of 6.5-5.5 when the anion regulator has been added in an appropriate amount. […] (1995), Sep., p.634 (Japanese version).
Experiments were conducted using six(6) Holstein calves with a body weight of approximately 200 kg. They were divided into three groups, two calves in a group. The groups were each fed with one of the following three(3) types of experimental feeds. Feed consisting of […] concentrated feed (“Beef-fast”, ex Itochu Feed Co.), 550 g of timothy-hay and 550 g of alfalfa hay cubes was fed, twice a day, at 9 and 16 o'clock, for one week before the start of the experiment, for adaptation.
These three(3) types of mixed feeds were separately supplied to each group at 9 and 16 o'clock on the same day and at 9 o'clock on the next day. After 10 minutes, each mixed feed was removed, and subsequently, a mixture of 900 g of concentrated feed, 500 g of timothy-hay and 550 g of alfalfa hay cubes, was supplied instead.
In the table and figure, for example, terms Lys HCl 1 and Lys HCl 2 indicate respectively the two calves in the first group which was fed with Lys HCl (Lys HCl-feeded group).

SMILES | Effectiveness as anion regulator | Reduction of urinary pH compared with NH4Cl
Cl.N=C(N)NCCC[C@H](N)C(=O)O [L-arginine hydrochloride, L-arginine monohydrochloride] | effective as anion regulators | reduce urinary pH better than NH4Cl
Cl.NCCCC[C@H](N)C(=O)O [L-lysine hydrochloride, L-lysine monohydrochloride] | effective as anion regulators | reduce urinary pH better than NH4Cl
